Data as given in BigSolDB 2.1.

CC(=O)c1c(C)cc(C(C)(C)C)cc1C
solubility (mole fraction)
Conditions	in acetone	in acetonitrile	in cyclohexane	in ethanol	in ethyl acetate	in isopropanol	in methanol	in n-octanol
273.15 K	0.308	0.188	0.279	0.0701	0.376	0.073	0.0607	0.123
278.15 K	0.346	0.235	0.337	0.095	0.427	0.101	0.0828	0.161
283.15 K	0.393	0.291	0.407	0.14	0.479	0.146	0.116	0.205
288.15 K	0.445	0.355	0.48	0.196	0.539	0.206	0.16	0.27
293.15 K	0.505	0.428	0.56	0.27	0.603	0.288	0.228	0.354
298.15 K	0.568	0.521	0.645	0.37	0.673	0.391	0.339	0.46
303.15 K	0.64	0.623	0.735	0.52	0.741	0.542	0.478	0.6
308.15 K	0.728	0.739	0.832	0.705	0.817	0.729	0.667	0.761
